Measurements taken from article PMC4632503, “Targeting of Helicobacter pylori thymidylate synthase ThyX by non-mitotoxic hydroxy-naphthoquinones” (Open Biology, 2015).
Read-outs that look alike come from different tables or passages of the source.

How the values were obtained:
[1] = system: H. pylori strain SS1; assay: MIC, broth microdilution test, strain SS1; assay type: cell-based; conditions: Helicobacter pylori, 24 h, read-out: minimal inhibitory concentration (MIC) strain SS1
Description: (§1) The in vitro anti-bacterial activity of 2-OH-1,4-NQ compounds was assessed against the 26695 and SS1 strains of H. pylori. DMSO was used as control in all experiments.
(§2) Disc diffusion tests were performed in triplicate, including a DMSO-only control on each plate, as specified in the electronic supplementary material. Minimal inhibitory concentrations (MICs) were determined using a broth microdilution test in 24-well microtitre plates. For test inocula, an overnight preculture of H. pylori strains 26695 and SS1 was diluted to an OD600 of approximately 0.1 and 0.5 ml of this suspension was transferred to each well. Ten microlitres of twofold serial dilutions of each compound in DMSO, ranging in concentration from 0.625 to 20 µg ml^−1, were added and the covered plates were incubated for 24 h at 37°C with orbital shaking at 140 r.p.m. under microaerophilic conditions. The MIC was determined as the lowest compound concentration resulting in full growth inhibition after 24 h of incubation. All the tests were done in triplicate, including cell-free and DMSO-only controls.

[2] = system: H. pylori strain 26695; assay: MIC, broth microdilution test, strain 26695; assay type: cell-based; conditions: Helicobacter pylori, 26695, 24 h, read-out: minimal inhibitory concentration (MIC) strain 26695
Description: as §1, §2

[3] = target: T1, HpThyX (Helicobacter pylori, UniProt O26061); assay: tritium release (deprotonation) assay of [5-3H]dUMP; assay type: biochemical; conditions: for remaining activity at 100 µM: 20 min, read-out: inhibition against ThyX (% remaining activity relative to control); for dTMP-forming activity: quantitative tritium release assay, 100 μM compound, 10 μM ThyX enzyme
T1 construct: His6; made in house; host or cells: Escherichia coli BL21 (plasmid pGL2, pBAD promoter)
T1 sequence (O26061 whole entry): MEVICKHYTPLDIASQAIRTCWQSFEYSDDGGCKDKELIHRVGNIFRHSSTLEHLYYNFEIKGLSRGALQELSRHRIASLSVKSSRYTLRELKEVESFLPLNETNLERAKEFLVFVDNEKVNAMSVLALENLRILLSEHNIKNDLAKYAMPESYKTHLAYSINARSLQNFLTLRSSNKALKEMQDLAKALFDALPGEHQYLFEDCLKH
Description: (§3) HpThyX activity was assessed by measuring either deprotonation of [5-^3H]dUMP or NAPDH oxidation activities.
In the tritium release (deprotonation) assays, typical reactions contained 10 mM MgCl2, 10% (v/v) glycerol, 500 µM FAD, 2 mM NADPH, 1 mM CH2H4Folate and 10 mM β-mercaptoethanol in 50 mM HEPES (pH 8). Different concentrations of dUMP were also included in the reaction mixtures. The specific activity of tritiated [5-^3H]dUMP (diammonium salt) stock was 15–30 Ci mmol^−1 (Moravek Biochemicals, CA, USA). 2-OH-1,4-NQ derivatives were prepared at 100 µM in 1% DMSO. Reactions were initiated by adding the enzyme (10 µM) and were stopped after 20 min incubation at 37°C.

[4] = system: AGS cells; assay: mitotoxicity, resazurin reduction; assay type: cell-based, human; conditions: for mitotoxicity: 0.78 to 50 μg ml^−1, 4 h treatment; for effect on mitochondrial metabolism: low concentrations, resazurin reduction
Description: Mitochondrial toxicity (mitotoxicity) was assessed by measuring resazurin (7-hydroxy-3H-phenoxazin-3-one 10-oxide) reduction by following absorption changes at 570 nm (Mitochondrial Viability Assay; Abcam). Resazurin is an indicator dye that reports on oxidation–reduction reactions taking place in the mitochondria of living cells. AGS cells (≅2.5 × 10^5cells well^−1) cultured in a DMEM galactose/glutamine-supplemented medium were seeded in sterile white-walled 96-well clear-bottom microplates and treated for 4 h with different doses of 2-OH-1,4-NQ compounds ranging from 0.78 to 50 μg ml^−1. Addition of the stain solution was followed by a further 4 h incubation at 37°C (5% CO2, 90% humidity) and A570 was measured. Rotenone, an inhibitor of the mitochondrial respiratory chain complex I, was used as a positive control.

[5] = tolerance of orogastric treatment in infected mice; assay type: in vivo, NMRI mice; conditions: orogastric three times a day, 0.375 mg mouse day^−1, one week; for effect on body or stomach weight: data not shown
Description: NMRI-specific pathogen-free mice (Charles River Laboratories) were orogastrically inoculated with 10^8 CFU of the H. pylori mouse-adapted strain SS1, prepared in 100 μl of peptone broth. Four groups of six to eight mice were infected by H. pylori strain SS1. Earlier experiments have established that after one week, colonization of mice is fully established. A negative control group of five mice was inoculated with peptone broth alone and was not colonized by H. pylori. One week after infection, three groups of mice were treated orogastrically three times a day with 500 µl of either compound 010-C, 010-E or 010-I dissolved in 2% β-cyclodextrin at 0.25 mg ml^−1 (0.375 mg mouse d^−1) during one week. As a control, the fourth group of mice was treated orogastrically three times a day by the same amount of 2% β-cyclodextrin (17.6 mM), the vehicle of the compounds. […] This average size is in agreement with the average size of β-cyclodextrin particles that self-aggregate in water at a concentration of 12 mM [39]. After treatment, viable H. pylori cells, colonizing the mouse stomach, were enumerated by culture of serial dilutions of homogenized tissue on blood agar plates containing bacitracin (200 μg ml^−1) and nalidixic acid (10 μg ml^−1) as in [40].

[6] = target: T1, HpThyX; assay: NADPH oxidation assay; assay type: biochemical; conditions: estimated from slope of IC50 versus dUMP concentration
Description: as §3
NADPH oxidation assays were performed at 37°C in 96-well plates (Greiner Bio-One). One hundred microlitres of reaction mixture contained HEPES 50 mM (pH 8.6), NaCl 150 mM, FAD 50 µM, β-mercaptoethanol 1.43 mM, NADPH 500 µM and 10 µM of purified HpThyX. dUMP and 2-OH-1,4-NQ concentrations were varied across 12.5–200 µM and 0.3–100 µM, respectively. Microtitre plates were prepared and transferred to the microplate reader Chameleon II (Hidex). The reactions were started by automatically injecting NADPH into individual wells and ThyX activity was determined by following a decrease in absorbance at 340 nm. A molar extinction coefficient of 6220 M^−1 cm^−1 at 340 nm (ε340) was used to quantify NADPH oxidation. Samples with added DMSO and enzyme-free reactions were used as positive and negative controls, respectively.

[7] = system: AGS cells; assay: cytotoxicity, LDH release; assay type: cell-based, human; conditions: for cytotoxicity: 0.78 to 50 μg ml^−1, 24 h
Description: Cytotoxicity of the 2-OH-1,4-NQ derivatives was assessed by measuring lactate dehydrogenase (LDH) release following manufacturer's instructions (Cytotoxicity Detection Kit; Roche Applied Sciences). Briefly, AGS cells (human gastric adenocarcinoma cell line; ATCC Catalog no. CRL-1739TM) were cultured in Ham's F-12 K medium containing 1% of FBS. A total of 3 × 10^4 cells were added per well in a sterile 96-well tissue culture plate. Cells were then treated with different doses of 2-OH-1,4-NQ compounds ranging from 0.78 to 50 μg ml^−1. After a 24 h incubation at 37°C (5% CO2, 90% humidity), the microplates were centrifuged at 250g for 10 min, and the supernatants were carefully removed and transferred into optically clear 96-well microplates (Greiner Bio-One). The dye solution containing iodotetrazolium chloride and sodium lactate was then added to each well to quantify the amount of LDH released into the extracellular medium. LDH was quantified by measuring the A490 using a PowerWave Microplate Spectrophotometer (BioTek).

[8] = system: H. pylori 26695; assay: bactericidal activity, viable counts (CFU) in liquid culture; assay type: cell-based, Helicobacter pylori; conditions: exposure up to 24 h, replating on solid media
Description: To determine the bactericidal activity of C8-C1 against H. pylori, liquid BHI medium was inoculated with an overnight culture of H. pylori 26695 at an initial OD600 of 0.1. C8-C1 or chloramphenicol, used as bacteriostatic control, were added after 4 h of culture time at final concentrations of 5 and 30 µg ml^−1. To determine the viable counts of surviving bacteria (colony forming units, CFU), aliquots of culture were then plated in triplicate on blood agar plates after 3 and 24 h exposure.

[9] = semi-quantitative deprotonation assay, remaining activity, lower = stronger inhibition

Structure (SMILES)	MIC ([1]; full growth inhibition) [µg/mL]	MIC ([1]; value in brackets) [µM]	MIC ([2]; full growth inhibition) [µg/mL]	MIC ([2]; value in brackets) [µM]	remaining activity at 100 µM [3, 9] [%]	further results
COc1ccc(CC2=C(O)C(=O)c3ccccc3C2=O)cc1OC [010-K]	10	30.8	20	61.7	75.1	
O=C1C(O)=C(Cc2ccc(C(F)(F)F)cc2)C(=O)c2ccccc21 [007-F]	10	15.1	5	15.1		remaining activity at 100 µM [3]: 60.6%
COc1cc(CC2=C(O)C(=O)c3ccccc3C2=O)ccc1O [010-H]	10	32.2	20	64.5	57.8	
O=C1C(O)=C(Cc2ccco2)C(=O)c2ccccc21 [010-C]	10	39.3	10	39.3	76.4	mitotoxicity [4]: non-mitotoxic; effect on mitochondrial metabolism [4]: activated the mitochondrial metabolism; tolerance in mice [5]: tolerated in mice; effect on body or stomach weight [5]: None of the aforementioned treatments affected either the body or stomach weight; Ki [6]: 28 nM; cytotoxicity [7]: non-cytotoxic; dTMP-forming activity [3]: suppressed the dTMP-forming activity
O=C1C(O)=C(Cc2ccc(F)c(C(F)(F)F)c2)C(=O)c2ccccc21 [010-E]	5	14.3	5	14.3	77.7	mitotoxicity [4]: non-mitotoxic; effect on mitochondrial metabolism [4]: activated the mitochondrial metabolism; tolerance in mice [5]: tolerated in mice; effect on body or stomach weight [5]: None of the aforementioned treatments affected either the body or stomach weight; cytotoxicity [7]: non-cytotoxic; dTMP-forming activity [3]: suppressed the dTMP-forming activity
O=C1C(O)=C(Cc2ccc(-c3ccc(Cl)cc3)cc2)C(=O)c2ccccc21 [007-B]	10	26.7	10	26.7	60.2	
O=C1C(O)=C(Cc2ccc(F)c(Cl)c2)C(=O)c2ccccc21 [010-F]	5	15.8	10	31.6	74.5	
O=C1C(O)=C(Cc2ccc(Cl)cc2)C(=O)c2ccccc21 [010-A]	5	16.7	10	33.5	49.5	
O=C1C(O)=C(Cc2ccc(F)cc2)C(=O)c2ccccc21 [007-E]	10	35.4	10	35.4	66.3	
O=C(N[C@H](CO)[C@H](O)c1ccc([N+](=O)[O-])cc1)C(Cl)Cl [chloramphenicol, reference compound]						kind of anti-microbial activity / viable cells after exposure [8]: bacteriostatic
O=C1C(O)=C(Cc2cc(F)cc(F)c2)C(=O)c2ccccc21 [010-B]	10	33.3	10	33.3	74.3	
O=C1C(O)=C([C@H]2CC[C@H](c3ccc(Cl)cc3)CC2)C(=O)c2ccccc21 [atovaquone, 2-(trans-4-(4-chlorophenyl)cyclohexyl)-3-hydroxy-1,4-naphthoquinone, reference compound]						mitotoxicity [4]: targeted mitochondria; cytotoxic effect ([7]; 25 µg ml^−1, 24 h): 48 ± 5%
O=C1C(O)=C(C=Cc2ccc(F)cc2)C(=O)c2ccccc21 [010-J]	2.5	8.49	2.5	8.49	49.7	
CC(C)Oc1ccc(CC2=C(O)C(=O)c3ccccc3C2=O)cc1 [007-D]	20	62	≥ 20	≥ 62	45.7	
O=C1C(O)=C(Cc2ccc(Oc3ccccc3)cc2)C(=O)c2ccccc21 [007-G]	5	14	20	56.2	61.8	
O=C1C(O)=C(Cc2ccc(OC(F)(F)F)cc2)C(=O)c2ccccc21 [007-C]	5		5			remaining activity at 100 µM [3]: 62.5%
O=C1C(O)=C(Cc2cccs2)C(=O)c2ccccc21 [010-D]	10	37	10	37	36.4	
